From PubChem BioAssay AID248 (DTP/NCI, 2004)
Where “and” joins values, the source holds several entries; their conditions need not be identical. Equal entries are not always repeated. Inconclusive results and toxic doses are left out. Rule as the data show it: active = T/C of 150% or more; inactive = T/C below 125%.

Tested on: L1210 leukemia ip in BDF1 mice, survival T/C
Test: NCI In Vivo Anticancer Drug Screen. Data for tumor model L1210 Leukemia (intraperitoneal) in B6D2F1 (BDF1) mice
Conditions: endpoint: mean survival time, higher = longer survival
How it was run: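 Antitumor effect is assessed in tumor-bearing animals. Survival in the compound arm is compared with a vehicle-dosed control arm and expressed as their quotient.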

[1] = dose: 100.0 mg/kg/injection, schedule: Q01DX009 (ip), vehicle: saline with Tween-80
[2] = dose: 100.0 mg/kg/injection, schedule: Q04DX003 (ip), vehicle: saline
[3] = dose: 200.0 mg/kg/injection, schedule: Q01DX009 (ip), vehicle: saline with Tween-80
[4] = dose: 200.0 mg/kg/injection, schedule: Q04DX003 (ip), vehicle: saline
[5] = dose: 50.0 mg/kg/injection, schedule: Q01DX009 (ip), vehicle: Klucel (hydroxypropylcellulose) (HPC)
[6] = dose: 100.0 mg/kg/injection, schedule: Q01DX009 (ip), vehicle: Klucel (hydroxypropylcellulose) (HPC)
[7] = dose: 100.0 mg/kg/injection, schedule: Q04DX003 (ip), vehicle: saline with Tween-80
[8] = dose: 200.0 mg/kg/injection, schedule: Q04DX003 (ip), vehicle: saline with Tween-80
[9] = dose: 400.0 mg/kg/injection, schedule: Q04DX003 (ip), vehicle: saline with Tween-80
[10] = dose: 200.0 mg/kg/injection, schedule: Q04DX003 (ip), vehicle: Klucel (hydroxypropylcellulose) (HPC)
[11] = dose: 400.0 mg/kg/injection, schedule: Q04DX003 (ip), vehicle: Klucel (hydroxypropylcellulose) (HPC)
[12] = dose: 100.0 mg/kg/injection, schedule: Q01DX001 (ip), vehicle: saline
[13] = dose: 200.0 mg/kg/injection, schedule: Q01DX001 (ip), vehicle: saline
[14] = dose: 400.0 mg/kg/injection, schedule: Q01DX001 (ip), vehicle: saline
[15] = dose: 200.0 mg/kg/injection, schedule: Q01DX001 (ip), vehicle: carboxymethylcellulose (CMC)
[16] = dose: 400.0 mg/kg/injection, schedule: Q01DX001 (ip), vehicle: carboxymethylcellulose (CMC)
[17] = dose: 100.0 mg/kg/injection, schedule: Q01DX001 (ip), vehicle: saline with Tween-80
[18] = dose: 200.0 mg/kg/injection, schedule: Q01DX001 (ip), vehicle: saline with Tween-80
[19] = dose: 50.0 mg/kg/injection, schedule: Q01DX001 (ip), vehicle: carboxymethylcellulose (CMC)
[20] = dose: 100.0 mg/kg/injection, schedule: Q01DX001 (ip), vehicle: carboxymethylcellulose (CMC)

Measured: T/C

CC(=O)OC1CC2CCC1(C)C2(C)C (configuration not stated)
inactive: dose: 50.0 mg/kg/injection, schedule: Q01DX009 (ip), vehicle: saline with Tween-80 100 % of control | dose: 50.0 mg/kg/injection, schedule: Q01DX009 (ip), vehicle: saline 96 % of control | [1] 96 % of control | dose: 100.0 mg/kg/injection, schedule: Q01DX009 (ip), vehicle: saline 98 % of control | [2] 87 % of control | [3] 96 % of control | dose: 200.0 mg/kg/injection, schedule: Q01DX009 (ip), vehicle: saline 89 % of control | [4] 90 % of control

CC(C)(C)C[CH2][Hg][Cl]
inactive: dose: 6.25 mg/kg/injection, schedule: Q04DX003 (ip), vehicle: Klucel (hydroxypropylcellulose) (HPC) 92 % of control | dose: 12.5 mg/kg/injection, schedule: Q04DX003 (ip), vehicle: Klucel (hydroxypropylcellulose) (HPC) 94 % of control

Cc1cc(=O)oc2ccc(OS(C)(=O)=O)cc12
inactive: [5] 90 % of control | [6] 101 % of control | dose: 200.0 mg/kg/injection, schedule: Q01DX009 (ip), vehicle: Klucel (hydroxypropylcellulose) (HPC) 90 % of control

CCOC(=O)c1cnc(SC)nc1Nc1ccc(C)cc1
inactive: [7] 97 % of control | [8] 91 % of control | [9] 86 % of control

CCCCCC(C[N+](C)(C)C)C(O)/C=C\c1ccccc1 (configuration not stated)
inactive: dose: 2.5 mg/kg/injection, schedule: Q01DX009 (ip), vehicle: saline 97 % of control | dose: 5.0 mg/kg/injection, schedule: Q01DX009 (ip), vehicle: saline 97 % of control | dose: 5.0 mg/kg/injection, schedule: Q04DX003 (ip), vehicle: saline 103 % of control | dose: 10.0 mg/kg/injection, schedule: Q01DX009 (ip), vehicle: saline 99 % of control | dose: 10.0 mg/kg/injection, schedule: Q04DX003 (ip), vehicle: saline 98 % of control

c1cncc(-c2nnc(-c3cccnc3)o2)c1
inactive: dose: 12.5 mg/kg/injection, schedule: Q04DX002 (ip), vehicle: saline with Tween-80 124 % of control | dose: 50.0 mg/kg/injection, schedule: Q04DX002 (ip), vehicle: saline with Tween-80 91 % of control

COc1ccc(CSSP(=S)(OC)c2ccc(OC)cc2)cc1 (configuration not stated)
inactive: [1] 91 % of control | [3] 95 % of control | dose: 400.0 mg/kg/injection, schedule: Q01DX009 (ip), vehicle: saline with Tween-80 88 % of control

N#CC(C#N)=NNc1cccc(Cl)c1
inactive: [10] 96 % of control | [11] 101 % of control

Cc1cc(C)c(Sc2ccc([N+](=O)[O-])c3ccccc23)c(C)c1
inactive: dose: 100.0 mg/kg/injection, schedule: Q01DX001 (ip), vehicle: Klucel (hydroxypropylcellulose) (HPC) 102 % of control | dose: 100.0 mg/kg/injection, schedule: Q04DX003 (ip), vehicle: Klucel (hydroxypropylcellulose) (HPC) 94 % of control | dose: 200.0 mg/kg/injection, schedule: Q01DX001 (ip), vehicle: Klucel (hydroxypropylcellulose) (HPC) 98 % of control | [10] 100 % of control | dose: 400.0 mg/kg/injection, schedule: Q01DX001 (ip), vehicle: Klucel (hydroxypropylcellulose) (HPC) 95 % of control | [11] 90 % of control

O=C(CCCc1ccc(N(CCCl)CCCl)cc1)OCc1ccccc1
inactive: dose: 100.0 mg/kg/injection, schedule: Q04DX002 (ip), vehicle: saline 121 % of control | dose: 200.0 mg/kg/injection, schedule: Q04DX002 (ip), vehicle: saline 108 % of control | dose: 400.0 mg/kg/injection, schedule: Q04DX002 (ip), vehicle: saline 121 % of control

O=c1nc(NC2OC(CO)C(O)C2O)ccn1C1OC(CO)C(O)C1O (configuration not stated)
inactive: dose: 100.0 mg/kg/injection, schedule: Q01DX005 (ip), vehicle: saline 102 % of control | dose: 200.0 mg/kg/injection, schedule: Q01DX005 (ip), vehicle: saline 108 % of control

Cc1ccc(S(=O)(=O)N(C)c2ccc(C#N)cc2F)cc1
inactive: [2] 102 % of control | [4] 98 % of control | dose: 400.0 mg/kg/injection, schedule: Q04DX003 (ip), vehicle: saline 102 % of control

CC(=O)OC1C(C(N)=O)CC(C(=O)O)C1OC(C)=O (configuration not stated)
inactive: [12] 112 % of control | [13] 114 % of control | [14] 106 % of control

O=C(O)/C=C\Br
inactive: dose: 25.0 mg/kg/injection, schedule: Q01DX009 (ip), vehicle: Klucel (hydroxypropylcellulose) (HPC) 91 % of control | dose: 50.0 mg/kg/injection, schedule: Q01DX005 (ip), vehicle: Klucel (hydroxypropylcellulose) (HPC) 95 % of control | [5] 106 % of control | dose: 100.0 mg/kg/injection, schedule: Q01DX005 (ip), vehicle: Klucel (hydroxypropylcellulose) (HPC) 103 % of control | [6] 98 % of control

COc1ccc(NC(=O)/C=N/O)c(Cl)c1
inactive: [15] 94 % of control | [16] 90 % of control

COc1cc2c(c(OC)c1OC)-c1ccc(=O)c(N)cc1C(NC(C)=O)CC2 (configuration not stated)
inactive: dose: 1.8 mg/kg/injection, schedule: Q01DX Z (ip), vehicle: carboxymethylcellulose (CMC) 97 % of control | dose: 3.7 mg/kg/injection, schedule: Q01DX Z (ip), vehicle: carboxymethylcellulose (CMC) 101 % of control | dose: 7.5 mg/kg/injection, schedule: Q01DX Z (ip), vehicle: carboxymethylcellulose (CMC) 105 % of control | dose: 15.0 mg/kg/injection, schedule: Q01DX Z (ip), vehicle: carboxymethylcellulose (CMC) 105 % of control | dose: 30.0 mg/kg/injection, schedule: Q01DX Z (ip), vehicle: carboxymethylcellulose (CMC) 110 % of control and 112 % of control | dose: 60.0 mg/kg/injection, schedule: Q01DX Z (ip), vehicle: carboxymethylcellulose (CMC) 114 % of control and 122 % of control | dose: 240.0 mg/kg/injection, schedule: Q01DX Z (ip), vehicle: carboxymethylcellulose (CMC) 121 % of control

C(CC1CC1)OCOCCC1CC1
inactive: [17] 93 % of control | [18] 97 % of control

CC(=O)OCCC#N
inactive: [19] 95 % of control | [20] 95 % of control | [15] 106 % of control | [16] 95 % of control

C=CCOc1c(Cl)cc(Cl)cc1Cl
inactive: [12] 100 % of control | [13] 100 % of control | [14] 100 % of control

CCCCNS(=O)(=O)CCCC
inactive: [7] 105 % of control | [8] 101 % of control | [9] 97 % of control

O=C(CCCC(=O)N/N=C/c1ccc(Cl)c(Cl)c1)N/N=C\c1ccc(Cl)c(Cl)c1
inactive: dose: 50.0 mg/kg/injection, schedule: Q01DX001 (ip), vehicle: saline 116 % of control | [12] 110 % of control | [13] 118 % of control | [14] 100 % of control

Cc1nc(C)c(C(=O)N/N=C/c2ccc(N(CCCl)CCCl)cc2)s1
inactive: [19] 94 % of control | [20] 94 % of control | [15] 97 % of control | [16] 94 % of control

COc1cc(C)c(C)cc1/C(C)=C(/C)C(=O)O (tested in a mixture with another compound)
inactive: [17] 100 % of control | [18] 100 % of control | dose: 400.0 mg/kg/injection, schedule: Q01DX001 (ip), vehicle: saline with Tween-80 103 % of control
